PMC6315844, “Two Novel Multi-Functional Peptides from Meat and Visceral Mass of Marine Snail Neptunea arthritica cumingii and Their Activities In Vitro and In Vivo” (Marine Drugs, 2018)
Blank lines part the entries; values can stand above or below the molecule they belong to. No end group written: not given here.

How the values were obtained:
[1] = Thermal stability of synthetic peptides (DPPH and ACE activity retained); assay type: physicochemical; conditions: incubated at 20, 40, 60 and 80 °C, samples 90 to 1800 μg/mL, p > 0.05
Protocol: A series of samples with concentration range from 90 μg/mL (corresponding to 69.28 μM and 93.26 μM for [sequence] and [sequence], respectively) to 1800μg/mL were used in stability analysis.

[2] = Hydroxyl radical scavenging activity; conditions: natural purified peptide; Figure 3a; tests repeated three times; read-out: EC50 values of active peptides: OH
Protocol: The hydroxyl radical scavenging activity of peptide fractions was determined according to the methods described by Dong et al.. Vitamin C was used as a positive control. The hydroxyl radical activity of active peptides was evaluated by EC50.

[3] = test system: Tg (krt4:NTR-hKikGR)cy17 zebrafish; experiment: In vivo antioxidant activity in MTZ-treated transgenic zebrafish embryos (skin fluorescent spots); set-up: species or system zebrafish (Danio rerio); conditions: 10 mM MTZ, 24 h, 28 °C, n = 10
Source text: For Tg (krt4:NTR-hKikGR)^cy17 zebrafish, MTZ treatment can lead to ROS overproduction, apoptosis of skin cells, and reduction of fluorescence spots on skin; thus, this model is used to assess ROS scavenging capacity of sample by measuring the growth rate of fluorescent spots (FS) on the skin of Tg (krt4:NTR-hKikGR)^cy17 transgenic zebrafish. Sample with antioxidant activity can remove ROS from transgenic zebrafish and prevent the skin cell apoptosis.
The number of fluorescence spots on the skin will increase after incubation with antioxidant. Thus, we can evaluate the ROS scavenging ability of samples on the basis of changes in the number of fluorescence spots compared with the MTZ-treatment. The in vivo antioxidant activity of the active peptides was evaluated according to previously described methods with some modification using the transgenic zebrafish line Tg (krt4:NTR-hKikGR)^cy17. Twenty-four-hour-old transgenic zebrafish embryos were added to 24-well cell culture plates (10 embryos/well) and incubated with 2 mL of 10 mM MTZ (dissolved in fish water) and active peptides for 24 h at 28 °C. […] After incubation, zebrafish embryos were anesthetized with tricaine (0.16%, w/v), and fluorescence was observed using an FSX100 Bio Imaging Navigator instrument. FS were counted using ImagePro-Plus, and the in vivo antioxidant activity (%) of active peptides was determined by Equation 1. […]

[4] = DPPH radical scavenging activity; conditions: for DPPH Radical Scavenging Activity (%): fractions purified from M-F and VM-F using HILIC, all at the same concentration (not given), n = 3, mean ± SD; for EC50: natural purified peptide, Figure 3a, tests repeated three times, read-out: EC50 values of active peptides: DPPH
Protocol: The DPPH radical scavenging activity of the two peptide fractions was determined according to the methods described by Lee et al.. Vitamin C was used as a positive control. The EC50 values for DPPH radical scavenging was determined.

[5] = target: T1, angiotensin-converting enzyme (from the rabbit lung) (Oryctolagus cuniculus, UniProt P12822); experiment: ACE-inhibitory activity; assay type: biochemical; conditions: for ACE-Inhibitory Activity (%): fractions purified from M-F and VM-F using HILIC, all at the same concentration (not given), n = 3, mean ± SD; for EC50: natural purified peptide, Figure 3a, tests repeated three times, read-out: EC50 values of active peptides: ACE
T1 construct: angiotensin-converting enzyme (0.25 U·mL^−1, from the rabbit lung); purchased Sigma-Aldrich (Shanghai, China); host or cells: rabbit lung (tissue-derived)
T1 sequence (P12822 34-1310): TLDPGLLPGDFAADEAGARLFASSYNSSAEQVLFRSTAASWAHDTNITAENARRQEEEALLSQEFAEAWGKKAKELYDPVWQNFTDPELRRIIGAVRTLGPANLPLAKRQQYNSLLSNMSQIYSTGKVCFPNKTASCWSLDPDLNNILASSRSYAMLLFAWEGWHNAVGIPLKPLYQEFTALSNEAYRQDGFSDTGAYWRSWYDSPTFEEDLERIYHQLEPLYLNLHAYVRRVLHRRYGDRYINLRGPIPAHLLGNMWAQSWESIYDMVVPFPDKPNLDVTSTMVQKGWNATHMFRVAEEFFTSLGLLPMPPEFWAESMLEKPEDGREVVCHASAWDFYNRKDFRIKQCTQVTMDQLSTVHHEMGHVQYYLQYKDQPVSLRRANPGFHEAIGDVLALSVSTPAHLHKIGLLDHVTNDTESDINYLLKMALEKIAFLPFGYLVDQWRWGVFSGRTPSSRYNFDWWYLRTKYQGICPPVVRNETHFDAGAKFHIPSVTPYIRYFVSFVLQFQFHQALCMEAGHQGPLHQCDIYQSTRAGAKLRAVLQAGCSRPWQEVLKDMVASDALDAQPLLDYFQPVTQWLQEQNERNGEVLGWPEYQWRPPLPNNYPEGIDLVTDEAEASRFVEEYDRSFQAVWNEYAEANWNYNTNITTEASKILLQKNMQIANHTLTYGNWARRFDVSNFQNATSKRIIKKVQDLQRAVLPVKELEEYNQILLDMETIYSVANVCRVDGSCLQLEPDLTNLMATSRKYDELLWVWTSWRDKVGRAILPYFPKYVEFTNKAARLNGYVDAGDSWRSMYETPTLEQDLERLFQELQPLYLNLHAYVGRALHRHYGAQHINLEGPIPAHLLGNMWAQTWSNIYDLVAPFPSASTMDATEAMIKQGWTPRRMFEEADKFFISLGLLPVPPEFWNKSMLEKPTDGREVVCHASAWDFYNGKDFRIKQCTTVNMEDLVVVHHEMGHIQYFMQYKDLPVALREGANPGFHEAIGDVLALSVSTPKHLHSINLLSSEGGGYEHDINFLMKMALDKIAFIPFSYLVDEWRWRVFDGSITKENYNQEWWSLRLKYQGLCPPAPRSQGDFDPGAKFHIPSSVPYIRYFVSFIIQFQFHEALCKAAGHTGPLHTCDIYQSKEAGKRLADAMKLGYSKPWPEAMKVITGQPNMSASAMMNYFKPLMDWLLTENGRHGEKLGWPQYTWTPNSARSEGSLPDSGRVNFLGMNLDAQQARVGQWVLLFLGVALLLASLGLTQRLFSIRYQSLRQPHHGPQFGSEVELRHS
Source text: (§1) DPPH, angiotensin-converting enzyme (0.25 U·mL^−1, from the rabbit lung), N-hippuryl-His-Leu hydrate (HHL), hippuric acid, and amino acid standards were purchased from Sigma-Aldrich (Shanghai, China). α-Glucosidase protease (50 U/mg, from yeast), α-amylase protease (50 U/mg, from Bacillus subtilis), acarbose, 4-nitrophenyl-β-D-galactopyranoside, 6-aminoquinolyl-N-hydroxysuccinimidyl carbamate (AQC), ribonuclease (13,700 Da, from the bovine pancreas), aprotinin hydrochloride (6511 Da, from the bovine lung), angiotensin II (1046 Da), and L-serine (105 Da) were purchased from Yuanye Biological Technology Co. (Shanghai, China). Trypsin (250 U/mg), pepsin (250 U/mg), Sephadex G25 gel, nifedipine, and vitamin C were purchased from Solarbio (Beijing, China). Transgenic zebrafish Tg (krt4:NTR-hKikGR)^cy17 are maintained in our lab. All chemicals and reagents used for HPLC were of chromatographic grade and other chemicals and reagents were of analytical grade.
ACE-inhibitory activity was measured according to the methods of Chen et al.. Nifedipine was used as a positive control. Results were reported as EC50 values.

[6] = Ferric reducing capacity (reducing power, FRAP); conditions: natural purified peptide, Figure 3a, tests repeated three times, read-out: EC50 values of active peptides: FRAP
Protocol: The reducing power of the peptide fractions was assayed as described by Moayedi et al.. Vitamin C was used as a positive control. The reducing power of active peptides was assayed by determining EC50 values.

[7] = target: α-glucosidase (from yeast); experiment: α-Glucosidase inhibitory activity; assay type: biochemical; conditions: natural purified peptide; Figure 3a; tests repeated three times; read-out: EC50 values of active peptides: α-glucosidase
Source text: as §1
(§2) α-Amylase and α-glucosidase inhibitory activities were assayed as described by Uraipong et al.. Acarbose was used as a positive control. The inhibitory activity of active peptides was expressed as the EC50 value.

[8] = test system: α-amylase (from Bacillus subtilis); experiment: α-Amylase inhibitory activity; assay type: biochemical; conditions: for α-Amylase Inhibitory Activity (%): fractions purified from M-F and VM-F using HILIC, all at the same concentration (not given), n = 3, mean ± SD; for EC50: natural purified peptide, Figure 3a, tests repeated three times, read-out: EC50 values of active peptides: α-amylase
Source text: as §1, §2

[9] = synthetic peptides; simulated gastrointestinal digestion; samples 90 to 1800 μg/mL; p > 0.05
Protocol: A series of samples with concentration range from 90 μg/mL (corresponding to 69.28 μM and 93.26 μM for […] and […], respectively) to 1800μg/mL were used in stability analysis.
Thermal stability and gastrointestinal digestion stability of two synthetic peptides were determined according to Chen et al.. The incubated temperature for peptide solutions was set as 20, 40, 60, and 80 °C, respectively. DPPH radical scavenging activities and ACE inhibitory activities of the peptide solutions were measured as the above description.

ACE = conditions: data recorded in biopep database; read-out: EC50 (ACE inhibition); cited from earlier work
Source text: ACE catalyzes the conversion of angiotensin I to angiotensin II, a potent vasoconstrictor, and promotes degradation of the vasodilator bradykinin [31]; thus, inhibition of ACE activity may help with reducing blood pressure. Because high-molecular-weight peptides cannot occupy the active site of ACE [32], ACE-inhibitory peptides are typically 2–30 amino acids in length.

[10] = target: T2, angiotensin-converting enzyme (from the rabbit lung) (rabbit) (UniProt P12822)
T2 sequence: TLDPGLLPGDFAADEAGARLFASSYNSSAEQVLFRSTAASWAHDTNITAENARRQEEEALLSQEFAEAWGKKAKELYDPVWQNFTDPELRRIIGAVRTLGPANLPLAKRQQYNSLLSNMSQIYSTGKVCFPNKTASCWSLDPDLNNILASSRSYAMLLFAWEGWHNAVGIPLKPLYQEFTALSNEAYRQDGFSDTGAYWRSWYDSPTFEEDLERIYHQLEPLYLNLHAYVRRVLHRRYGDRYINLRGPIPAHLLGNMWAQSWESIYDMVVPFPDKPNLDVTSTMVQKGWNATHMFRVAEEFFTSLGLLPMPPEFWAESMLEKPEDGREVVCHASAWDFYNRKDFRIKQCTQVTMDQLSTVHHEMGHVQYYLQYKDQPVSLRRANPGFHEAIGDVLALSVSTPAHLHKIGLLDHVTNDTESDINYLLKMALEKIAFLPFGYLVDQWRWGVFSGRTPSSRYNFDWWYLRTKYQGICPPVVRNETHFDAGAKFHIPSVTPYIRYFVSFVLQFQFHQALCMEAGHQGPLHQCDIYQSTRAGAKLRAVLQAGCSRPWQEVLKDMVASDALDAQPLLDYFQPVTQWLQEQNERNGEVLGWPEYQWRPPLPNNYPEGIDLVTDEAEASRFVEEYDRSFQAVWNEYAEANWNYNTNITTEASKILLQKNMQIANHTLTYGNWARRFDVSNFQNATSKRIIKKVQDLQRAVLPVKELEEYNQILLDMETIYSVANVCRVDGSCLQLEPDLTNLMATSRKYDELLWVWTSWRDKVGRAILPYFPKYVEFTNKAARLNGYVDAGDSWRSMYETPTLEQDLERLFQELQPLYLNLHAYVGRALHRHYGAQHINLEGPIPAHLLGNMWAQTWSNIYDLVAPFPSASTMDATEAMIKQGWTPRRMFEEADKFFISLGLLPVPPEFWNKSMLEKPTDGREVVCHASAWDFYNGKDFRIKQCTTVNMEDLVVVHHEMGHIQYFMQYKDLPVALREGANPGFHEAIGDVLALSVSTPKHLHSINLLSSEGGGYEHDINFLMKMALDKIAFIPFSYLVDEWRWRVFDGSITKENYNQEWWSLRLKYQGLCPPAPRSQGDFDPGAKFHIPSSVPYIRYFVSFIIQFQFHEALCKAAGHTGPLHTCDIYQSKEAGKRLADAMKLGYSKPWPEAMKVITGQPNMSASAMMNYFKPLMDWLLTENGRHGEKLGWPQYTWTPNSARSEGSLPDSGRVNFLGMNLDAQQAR

Molecule: YIAEDAER [VM-P7, Tyr-Ile-Ala-Glu-Asp-Ala-Glu-Arg]
effect of thermal treatment on EC50 values of DPPH radical scavenging and ACE inhibitory activities [1]: have thermal and gastrointestinal stability
EC50 [2]: 814 µM
number of fluorescent spots (FS) compared with negative control (MTZ without peptides) ([3]; low concentration): no significant difference
DPPH Radical Scavenging Activity (%) [4]: 82.60 ± 0.86%
EC50 [4]: 185 µM
ACE-Inhibitory Activity (%) [5]: 74.95 ± 1.24%
EC50 [5]: 236 µM
EC50 [6]: 856 µM
EC50 [7]: 823 µM
α-Amylase Inhibitory Activity (%) [8]: 53.85 ± 0.92%
EC50 [8]: 942 µM
effect of gastrointestinal digestion treatment on EC50 values of DPPH radical scavenging and ACE inhibitory activities [9]: have thermal and gastrointestinal stability

Molecule: YIPIQYVLSR
EC50 (ACE): 132 µM

Molecule: YLYEIAR
EC50 (ACE): 16 µM

Molecule: YLYEIARR
EC50 (ACE): 86 µM

Molecule: YSQLENEFDR [M-P6, Tyr-Ser-Gln-Leu-Glu-Asn-Glu-Phe-Asp-Arg]
effect of thermal treatment on EC50 values of DPPH radical scavenging and ACE inhibitory activities [1]: have thermal and gastrointestinal stability
EC50 [2]: 234 µM
number of fluorescent spots (FS) compared to the control group (no MTZ or peptides) ([3]; high concentration): more FS were detected
DPPH Radical Scavenging Activity (%) [4]: 91.87 ± 0.62%
EC50 [4]: 96.7 µM
ACE-Inhibitory Activity (%) [5]: 84.81 ± 0.35%
EC50 [5]: 75.6 µM
EC50 [6]: 430 µM
EC50 [7]: 589 µM
α-Amylase Inhibitory Activity (%) [8]: 56.15 ± 1.64%
EC50 [8]: 692 µM
effect of gastrointestinal digestion treatment on EC50 values of DPPH radical scavenging and ACE inhibitory activities [9]: have thermal and gastrointestinal stability

ACE-inhibitory activity (%) of the HILIC-purified fraction M-P6 (enzyme activity; all fractions at the same concentration) [10]: 84.8%
Molecule: YSQLENEFDR [… (Tyr-Ser-Gln-Leu-Glu-Asn-Glu-Phe-Asp-Arg)]

ACE-inhibitory activity (%) of the HILIC-purified fraction VM-P7 (enzyme activity; all fractions at the same concentration) [10]: 75%
Molecule: YIAEDAER [YIAEDAER (Tyr-Ile-Ala-Glu-Asp-Ala-Glu-Arg)]
